Measured values taken from the supplement of paper PMC10307832.

Experiments:
Assay in all cases: relative viability (nuclei count vs DMSO), 5 days (fraction); higher = more cells survive
[1] = compound: Cc1nc(NC(=O)N2CCC[C@H]2C(N)=O)sc1-c1ccnc(C(C)(C)C(F)(F)F)c1 [Alpelisib] + N=C(N)NC(=N)NCCc1ccccc1 [Phenformin] (partner 250 µM)
Summary of the method: (§1)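 Lung cancer cell lines in 1536-well plates were dosed by pin tool the day after seeding, either with one drug alone or with a fixed anchor-drug dose plus five library-drug doses (not always all listed) in √10 steps. After 5 days, cells were fixed and their nuclei stained in one step (final 0.05% Triton X-100, 1% formaldehyde, 1 ug/ml Hoechst), then counted on 4× images. Relative viability is the nuclei count in treated wells divided by that in vehicle wells. Values are medians of duplicate plates.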

[2] = compound: Cc1nc(NC(=O)N2CCC[C@H]2C(N)=O)sc1-c1ccnc(C(C)(C)C(F)(F)F)c1 [Alpelisib] + CC(C)C[C@H](NC(=O)[C@H](Cc1ccccc1)NC(=O)c1cnccn1)B(O)O [Bortezomib] (partner 0.002 µM)
Summary of the method: as §1

[3] = compound: CCCS(=O)(=O)Nc1ccc(F)c(C(=O)c2c[nH]c3ncc(-c4ccc(Cl)cc4)cc23)c1F [Vemurafenib] + C[C@@H](Oc1cc(-c2cnn(C3CCNCC3)c2)cnc1N)c1c(Cl)ccc(F)c1Cl [Crizotinib] (partner 1 µM)
Summary of the method: as §1

[4] = compound: CCCS(=O)(=O)Nc1ccc(F)c(C(=O)c2c[nH]c3ncc(-c4ccc(Cl)cc4)cc23)c1F [Vemurafenib] + O=C(c1cc(Cc2n[nH]c(=O)c3ccccc23)ccc1F)N1CCN(C(=O)C2CC2)CC1 [Olaparib] (partner 8 µM)
Summary of the method: as §1

## NCI-H727
[1]; first compound 0.04 µM
  relative viability: 0.533
[1]; first compound 0.1265 µM
  relative viability: 0.555
[1]; first compound 0.4 µM
  relative viability: 0.498
[1]; first compound 1.265 µM
  relative viability: 0.412
[1]; first compound 4 µM
  relative viability: 0.215
[2]; first compound 0.04 µM
  relative viability: 0.806
[2]; first compound 0.1265 µM
  relative viability: 0.693
[2]; first compound 0.4 µM
  relative viability: 0.988
[2]; first compound 1.265 µM
  relative viability: 0.759
[2]; first compound 4 µM
  relative viability: 0.465
[3]; first compound 0.03162 µM
  relative viability: 0.793
[3]; first compound 0.1 µM
  relative viability: 0.623
[3]; first compound 0.3162 µM
  relative viability: 1.2
[3]; first compound 1 µM
  relative viability: 0.954
[4]; first compound 0.03162 µM
  relative viability: 0.748
[4]; first compound 0.1 µM
  relative viability: 0.774
[4]; first compound 0.3162 µM
  relative viability: 0.726
[4]; first compound 1 µM
  relative viability: 0.51

## NCI-H838
[1]; first compound 0.04 µM
  relative viability: 0.523
[1]; first compound 0.1265 µM
  relative viability: 0.507
[1]; first compound 0.4 µM
  relative viability: 0.549
[1]; first compound 1.265 µM
  relative viability: 0.41
[1]; first compound 4 µM
  relative viability: 0.355
[2]; first compound 0.04 µM
  relative viability: 0.692
[2]; first compound 0.1265 µM
  relative viability: 0.482
[2]; first compound 0.4 µM
  relative viability: 0.668
[2]; first compound 1.265 µM
  relative viability: 0.782
[2]; first compound 4 µM
  relative viability: 0.487
[3]; first compound 0.03162 µM
  relative viability: 0.761
[3]; first compound 0.1 µM
  relative viability: 0.783
[3]; first compound 1 µM
  relative viability: 0.928
[4]; first compound 0.03162 µM
  relative viability: 0.746
[4]; first compound 0.1 µM
  relative viability: 0.764
[4]; first compound 0.3162 µM
  relative viability: 0.697
[4]; first compound 1 µM
  relative viability: 0.821

## NCI-H1355
[1]; first compound 0.04 µM
  relative viability: 0.421
[1]; first compound 0.1265 µM
  relative viability: 0.404
[1]; first compound 0.4 µM
  relative viability: 0.438
[1]; first compound 1.265 µM
  relative viability: 0.433
[1]; first compound 4 µM
  relative viability: 0.332
[2]; first compound 0.04 µM
  relative viability: 1.15
[2]; first compound 0.1265 µM
  relative viability: 1.23
[2]; first compound 0.4 µM
  relative viability: 1.29
[2]; first compound 1.265 µM
  relative viability: 1.09
[2]; first compound 4 µM
  relative viability: 0.961
[3]; first compound 0.03162 µM
  relative viability: 1
[3]; first compound 0.1 µM
  relative viability: 0.963
[3]; first compound 0.3162 µM
  relative viability: 0.992
[3]; first compound 1 µM
  relative viability: 1.05
[4]; first compound 0.03162 µM
  relative viability: 0.722
[4]; first compound 0.1 µM
  relative viability: 0.671
[4]; first compound 0.3162 µM
  relative viability: 0.828
[4]; first compound 1 µM
  relative viability: 0.74

## NCI-H1437
[1]; first compound 0.04 µM
  relative viability: 0.326
[1]; first compound 0.1265 µM
  relative viability: 0.296
[1]; first compound 0.4 µM
  relative viability: 0.291
[1]; first compound 1.265 µM
  relative viability: 0.232
[1]; first compound 4 µM
  relative viability: 0.215
[2]; first compound 0.04 µM
  relative viability: 0.504
[2]; first compound 0.1265 µM
  relative viability: 0.515
[2]; first compound 0.4 µM
  relative viability: 0.497
[2]; first compound 1.265 µM
  relative viability: 0.49
[2]; first compound 4 µM
  relative viability: 0.508
[3]; first compound 0.03162 µM
  relative viability: 0.801
[3]; first compound 0.1 µM
  relative viability: 0.937
[3]; first compound 0.3162 µM
  relative viability: 0.895
[3]; first compound 1 µM
  relative viability: 0.906
[4]; first compound 0.03162 µM
  relative viability: 0.629
[4]; first compound 0.1 µM
  relative viability: 0.589
[4]; first compound 0.3162 µM
  relative viability: 0.615
[4]; first compound 1 µM
  relative viability: 0.637

## NCI-H1650
[1]; first compound 0.04 µM
  relative viability: 0.405
[1]; first compound 0.1265 µM
  relative viability: 0.408
[1]; first compound 0.4 µM
  relative viability: 0.43
[1]; first compound 1.265 µM
  relative viability: 0.362
[1]; first compound 4 µM
  relative viability: 0.308
[2]; first compound 0.04 µM
  relative viability: 0.201
[2]; first compound 0.1265 µM
  relative viability: 0.22
[2]; first compound 0.4 µM
  relative viability: 0.185
[2]; first compound 1.265 µM
  relative viability: 0.176
[2]; first compound 4 µM
  relative viability: 0.169
[3]; first compound 0.03162 µM
  relative viability: 0.922
[3]; first compound 0.3162 µM
  relative viability: 1.08
[3]; first compound 1 µM
  relative viability: 1.01
[4]; first compound 0.03162 µM
  relative viability: 0.677
[4]; first compound 0.1 µM
  relative viability: 0.626
[4]; first compound 0.3162 µM
  relative viability: 0.844
[4]; first compound 1 µM
  relative viability: 0.791

## NCI-H1651
[1]; first compound 0.04 µM
  relative viability: 0.369
[1]; first compound 0.1265 µM
  relative viability: 0.3
[1]; first compound 0.4 µM
  relative viability: 0.33
[1]; first compound 1.265 µM
  relative viability: 0.295
[1]; first compound 4 µM
  relative viability: 0.275
[2]; first compound 0.04 µM
  relative viability: 0.913
[2]; first compound 0.1265 µM
  relative viability: 0.921
[2]; first compound 0.4 µM
  relative viability: 0.913
[2]; first compound 1.265 µM
  relative viability: 0.886
[2]; first compound 4 µM
  relative viability: 0.745
[3]; first compound 0.03162 µM
  relative viability: 0.875
[3]; first compound 0.1 µM
  relative viability: 0.869
[3]; first compound 0.3162 µM
  relative viability: 0.806
[3]; first compound 1 µM
  relative viability: 0.795
[4]; first compound 0.03162 µM
  relative viability: 0.167
[4]; first compound 0.1 µM
  relative viability: 0.203
[4]; first compound 0.3162 µM
  relative viability: 0.193
[4]; first compound 1 µM
  relative viability: 0.169

## NCI-H1666
[1]; first compound 0.04 µM
  relative viability: 0.557
[1]; first compound 0.1265 µM
  relative viability: 0.602
[1]; first compound 0.4 µM
  relative viability: 0.576
[1]; first compound 1.265 µM
  relative viability: 0.591
[1]; first compound 4 µM
  relative viability: 0.564
[2]; first compound 0.04 µM
  relative viability: 0.837
[2]; first compound 0.1265 µM
  relative viability: 0.695
[2]; first compound 0.4 µM
  relative viability: 0.882
[2]; first compound 1.265 µM
  relative viability: 0.591
[2]; first compound 4 µM
  relative viability: 0.423
[3]; first compound 0.03162 µM
  relative viability: 1.02
[3]; first compound 0.3162 µM
  relative viability: 1.24
[3]; first compound 1 µM
  relative viability: 1.05
[4]; first compound 0.03162 µM
  relative viability: 0.715
[4]; first compound 0.1 µM
  relative viability: 0.77
[4]; first compound 0.3162 µM
  relative viability: 0.769
[4]; first compound 1 µM
  relative viability: 0.782

## NCI-H1734
[1]; first compound 0.04 µM
  relative viability: 0.376
[1]; first compound 0.4 µM
  relative viability: 0.349
[1]; first compound 1.265 µM
  relative viability: 0.275
[1]; first compound 4 µM
  relative viability: 0.23
[2]; first compound 0.04 µM
  relative viability: 0.896
[2]; first compound 0.1265 µM
  relative viability: 0.814
[2]; first compound 0.4 µM
  relative viability: 0.943
[2]; first compound 1.265 µM
  relative viability: 0.623
[2]; first compound 4 µM
  relative viability: 0.518
[3]; first compound 0.03162 µM
  relative viability: 0.665
[3]; first compound 0.1 µM
  relative viability: 0.684
[3]; first compound 0.3162 µM
  relative viability: 0.579
[3]; first compound 1 µM
  relative viability: 0.516
[4]; first compound 0.03162 µM
  relative viability: 0.55
[4]; first compound 0.1 µM
  relative viability: 0.62
[4]; first compound 0.3162 µM
  relative viability: 0.611
[4]; first compound 1 µM
  relative viability: 0.615

## NCI-H1755
[1]; first compound 0.04 µM
  relative viability: 0.653
[1]; first compound 0.1265 µM
  relative viability: 0.601
[1]; first compound 0.4 µM
  relative viability: 0.68
[1]; first compound 1.265 µM
  relative viability: 0.574
[1]; first compound 4 µM
  relative viability: 0.433
[2]; first compound 0.04 µM
  relative viability: 0.911
[2]; first compound 0.1265 µM
  relative viability: 0.972
[2]; first compound 0.4 µM
  relative viability: 1.06
[2]; first compound 1.265 µM
  relative viability: 0.886
[2]; first compound 4 µM
  relative viability: 0.838
[3]; first compound 0.03162 µM
  relative viability: 0.798
[3]; first compound 0.1 µM
  relative viability: 0.842
[3]; first compound 0.3162 µM
  relative viability: 0.844
[3]; first compound 1 µM
  relative viability: 0.79
[4]; first compound 0.03162 µM
  relative viability: 0.806
[4]; first compound 0.1 µM
  relative viability: 0.898
[4]; first compound 0.3162 µM
  relative viability: 0.907
[4]; first compound 1 µM
  relative viability: 0.8
